{"source": "paper PMC3788091", "about": "(Journal of controlled release : official journal of the …, 2013)", "key": {"[1]": {"conditions": "rat, in vivo"}, "[2]": {"conditions": "rat, in vivo", "remark": "listed apart in the source"}, "[3]": {"conditions": "rat, in vivo", "remark": "listed apart in the source"}, "in vivo": {"assay": "in vivo", "conditions": "Sprague Dawley, rat, intravenous, 10 mg DTX equivalent/kg"}, "[4]": {"conditions": "man and rodents; cited from earlier work"}, "[5]": {"conditions": "two compartment model, nonlinear regression fit"}}, "data": [{"compound": "Taxotere", "values": [{"measurement": "tissue distribution phase half-life (t1/2)", "setting": "[1]", "result": "~ 30 min"}, {"measurement": "CL", "setting": "[1]; iv", "result": 86.7, "unit": "mL/min/kg"}, {"measurement": "V (apparent volume of distribution)", "setting": "[1]; iv", "result": 3.401, "unit": "L/kg"}, {"measurement": "t1/2 (terminal elimination half-life)", "setting": "[1]; iv", "result": 3, "unit": "h"}, {"measurement": "cumulative 24h urinary DTX excretion", "setting": "[2]", "result": "2.36 ± 0.98", "unit": "% injected dose"}, {"measurement": "percentage of the total 8h biliary metabolites excreted as HDTX (%HDTX)", "setting": "[3]", "result": "82±12", "unit": "%"}]}, {"compound": "CC(=O)O[C@@]12CO[C@@H]1C[C@H](O)[C@@]1(C)C(=O)[C@H](O)C3=C(C)[C@@H](OC(=O)[C@H](O)[C@@H](NC(=O)OC(C)(C)C)c4ccccc4)C[C@@](O)([C@@H](OC(=O)c4ccccc4)[C@H]21)C3(C)C", "note": "[DTX, Docetaxel]", "values": [{"measurement": "clearance", "setting": "in vivo; plasma and bile", "result": 3.53, "unit": "mL/min"}, {"measurement": "Km", "setting": "in vivo; plasma", "result": 0.124, "unit": "µg/mL"}, {"measurement": "renal clearance contribution to DTX clearance", "setting": "[4]", "result": "< 10", "unit": "%"}, {"measurement": "CLD (distribution clearance)", "setting": "[5]", "result": 2202, "unit": "mL/h"}, {"measurement": "VC (volume of the central compartment)", "setting": "[5]", "result": 760, "unit": "mL"}, {"measurement": "VP (volume of the peripheral compartment)", "setting": "[5]", "result": 5811, "unit": "mL"}, {"measurement": "Vmax (nonlinear clearance, all remaining routes)", "setting": "[5]", "result": 391464, "unit": "ng/h"}]}]}
